For this assay, the system named is VP16-TraR. The assay is described as follows: Transient GUS reporter assay in carrot protoplasts with VP16-TraR effector and tra box reporter. Format: cell-based, Agrobacterium tumefaciens. Particulars: Table 8: TraA8(4X) +TraR. From the text: Carrot protoplasts were transfected with the TraA8 (4×)-GUS reporter construct with the 35S-VP16-TraR activator gene and tested for GUS induction by application of wild type AHL and the various AHL analogs described in Example 8.

The values that follow come from patent publication US7202085B2, “Control of gene expression in eukaryotic cells” (Calgene LLC, priority 1999, dated 2007).

Where “and” joins values, the source holds several entries; their conditions need not be identical. Identical values can stand only once.

For `CCCCCCC(C(C)=O)C(=O)N[C@@H](CCO)C(=O)O` (stereo partly drawn) [compound 26, N-(α-Hexyl-b-ketobutanoyl)-(S)-homoserine], the “1, 2, 3 (replicate GUS activities at the lower concentration)” value by setting is: (5 μM) 382.0 and 407.6 and 373.1; (25 μM) 1658.7 and 1300.7 and 1586.6. For the same molecule, the “4, 5, 6 (replicate GUS activities at the higher concentration)” value by setting is: (12.5 μM) 2145.8 and 1764.6 and 1527.0; (75 μM) 2585.3 and 3238.5 and 2815.8.
